# Measurements: patent publication US8053585B2, “Protecting group for carboxylic acids that can be photolyzed by visible light” (Cornell Research Foundation, Inc., priority 2006, dated 2011)
# Columns and labels:
# Type in all cases: cell-based
# [1] = molecular target: T1, α1-subunit human glycine receptor (Homo sapiens, UniProt P23415); experiment: Stability in aqueous solution by whole-cell current recording, cells used as glycine detector; settings: 1 mM solution, 20 hours in the dark, pH 7.4
# T1 construct: expressed in transfected cells; host or cells: HEK 293 cells, transiently transfected (Polyfect), co-transfected with GFP plasmid as marker; cDNA from Prof; H. Betz
# T1 sequence (P23415 29-457): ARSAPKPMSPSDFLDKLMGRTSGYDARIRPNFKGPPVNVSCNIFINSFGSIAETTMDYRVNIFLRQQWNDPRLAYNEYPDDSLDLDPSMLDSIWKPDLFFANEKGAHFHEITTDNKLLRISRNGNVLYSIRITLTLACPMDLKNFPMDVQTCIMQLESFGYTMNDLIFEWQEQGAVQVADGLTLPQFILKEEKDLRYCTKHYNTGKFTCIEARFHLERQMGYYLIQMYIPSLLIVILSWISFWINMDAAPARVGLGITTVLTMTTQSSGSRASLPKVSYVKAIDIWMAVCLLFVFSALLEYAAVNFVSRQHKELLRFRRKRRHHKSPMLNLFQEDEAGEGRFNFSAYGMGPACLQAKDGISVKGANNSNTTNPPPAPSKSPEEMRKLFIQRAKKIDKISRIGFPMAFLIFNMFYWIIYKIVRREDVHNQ
# Text: In whole-cell current recording experiments with DECM-caged glutamate, HEK 293 cells stably transfected with cDNA encoding the GluR6 were used. In whole-cell current recording experiments with DECM-caged glycine, HEK 293 cells were transiently transfected with the cDNA of the α1-subunit of the human glycine receptor by using the Polyfect™ transfection reagent (Qiagen GmbH, D-40724, Hilden, Germany). The cDNA of the α1-subunit was kindly provided by Professor H. Betz (Max-Plank-Institute for brain Research, Frankfurt, Germany). The cells were co-transfected with cDNA encoding the green fluorescent protein (pGreen Lantern plasmid, Life Technologies, Gaitherberg, Md.) to detect transfected cells (Chalfie et al., “Green Fluorescent Protein as a Marker for Gene Expression,” Science 263:802-805 (1994), which is hereby incorporated by reference in its entirety).
# The cells were used for electrophysiological experiments between 24 and 72 h after each passage. Whole-cell currents evoked by glutamate or glycine (100 μM) were recorded using the whole-cell configuration (Hamill et al., “Improved Patch-Clamp Techniques for High-Resolution Current Recording From Cells and Cell-Free Membrane Patches,” Pfluegers Arch 391:85-100 (1981), which is hereby incorporated by reference in its entirety) at room temperature, −60 mV, and pH 7.4. […]
# [2] = molecular target: T2, α1-subunit of the human glycine receptor (Homo sapiens, UniProt P23415); experiment: Flash lamp photolysis of DECM-caged glycine on HEK 293 cells; settings: 1 mM caged compound
# T2 construct: expressed in transfected cells; host or cells: HEK 293 cells, transiently transfected (Polyfect), co-transfected with GFP plasmid as marker; cDNA from Prof; H. Betz
# T2 sequence (P23415 29-457): T1 sequence (P23415 29-457)
# Experimental: The cells were used for electrophysiological experiments between 24 and 72 h after each passage. Whole-cell currents evoked by glutamate or glycine (100 μM) were recorded using the whole-cell configuration (Hamill et al., “Improved Patch-Clamp Techniques for High-Resolution Current Recording From Cells and Cell-Free Membrane Patches,” Pfluegers Arch 391:85-100 (1981), which is hereby incorporated by reference in its entirety) at room temperature, −60 mV, and pH 7.4. The experiments using DECM-caged glutamate were carried out in the absence or presence of 2 mM DECM-caged glutamate (FIG. 5A) or 1 mM 7-N,N-diethylamino-4-hydroxymethylcoumarin (2) (FIG. 5B). Alternatively, the experiments using DECM-caged glycine were carried out in the absence or presence of 1 mM DECM-caged-glycine (FIG. 10). The solution in the recording pipet contained 120 mM CsCl, 10 mM EGTA, and 10 mM HEPES, adjusted to pH 7.4. The HEK cell bath solution contained 150 mM NaCl, 1 mM CaCl2, 10 mM HEPES, pH 7.4. The resistance of the recording electrode filled with buffer solution was typically 3-5 MΩ and the series resistance was 5-6 MΩ. The cells were held at a constant transmembrane voltage of −60 mV and room temperature (22° C.). Whole-cell currents were amplified by using an Axopatch 200B (Axon Instruments, Foster City, Calif.) amplifier and filtered at 1-5 kHz by using a […], low-pass, Bessel (Dagan Corporation, Minneapolis, Minn.) filter incorporated in the amplifier. The filtered signal was digitized by a Digidata 1322A (Axon Instruments, Union City, Calif.) or a Labmaster DMA 100 KHz digitizing board (Scientific Solutions, Mentor, Ohio) controlled by pCLAMP9 software (Axon Instruments).
# The light produced by the Rapp (Rapp OptoElectronics, Hamburg, Germany) xenon flash lamp (SP-20) was coupled into an optical fiber (600 μm internal diameter), which delivered the light to the cell. The concentration of DECM-caged-glycine used was 1 mM for the results in FIG. 11. Typical light energies were 150-250 μJ per pulse. […] Data were analyzed with Microcal Origin3.5 software (Microcal, Northampton, Mass.).
# GluR6 glutamate receptor = experiment: Laser-pulse photolysis of DECM-caged glutamate on HEK 293 cells; settings: 2 mM caged compound, −60 mV, pH 7.4, 22° C.
# Experimental: The cells were used for electrophysiological experiments between 24 and 72 h after each passage. Whole-cell currents evoked by glutamate or glycine (100 μM) were recorded using the whole-cell configuration (Hamill et al., “Improved Patch-Clamp Techniques for High-Resolution Current Recording From Cells and Cell-Free Membrane Patches,” Pfluegers Arch 391:85-100 (1981), which is hereby incorporated by reference in its entirety) at room temperature, −60 mV, and pH 7.4. The experiments using DECM-caged glutamate were carried out in the absence or presence of 2 mM DECM-caged glutamate (FIG. 5A) or 1 mM 7-N,N-diethylamino-4-hydroxymethylcoumarin (2) (FIG. 5B). Alternatively, the experiments using DECM-caged glycine were carried out in the absence or presence of 1 mM DECM-caged-glycine (FIG. 10). The solution in the recording pipet contained 120 mM CsCl, 10 mM EGTA, and 10 mM HEPES, adjusted to pH 7.4. The HEK cell bath solution contained 150 mM NaCl, 1 mM CaCl2, 10 mM HEPES, pH 7.4. The resistance of the recording electrode filled with buffer solution was typically 3-5 MΩ and the series resistance was 5-6 MΩ. […]
# The laser light produced by the Exalite (Exiton Inc., Dayton, Ohio) 404 dye (≧400 nm) was coupled into an optical fiber (300 μm internal diameter), which delivered the light to the cell. […] Data were analyzed with Microcal Origin3.5 software (Microcal, Northampton, Mass.).
Structure (SMILES),free glycine in solution of caged compound [1],"concentration of liberated glycine ([2]; flash-lamp light pulse, 250 μJ)","I∞, current at t=∞ ([2]; −60 mV, pH 7.4, 22° C.)","kobs, apparent pseudo first-order rate constant of the current rise ([2]; −60 mV, pH 7.4, 22° C.)","I∞, current at t=∞ (GluR6 glutamate receptor)","kobs, apparent pseudo-first-order rate constant of the current rise (GluR6 glutamate receptor)"
"CCN(CC)c1ccc2c(COC(=O)CN)cc(=O)oc2c1 [DECM-caged glycine, (7-N,N-Diethylaminocoumarin-4-yl)-methyl-glycine-trifluoroacetate]",no free glycine was detected,60 µM,−4950±57 pA,125 ± 16 s⁻¹,–,–
"CCN(CC)c1ccc2c(COC(=O)CCC(N)C(=O)O)cc(=O)oc2c1 (stereo not drawn) [DECM-caged glutamate, (7-N,N-Diethylaminocoumarin-4-yl)-methyl-glutamate-trifluoroacetate]",–,–,–,–,−1590 pA,765 ± 14 s⁻¹
